This note sets out measurements from patent US4133888A, “Analgesic and morphine antagonistic 2'-hydroxy-2-(5-isoxazolyl-methyl)-6,7-benzomorphans and salts thereof” (Boehringer Ingelheim GmbH, priority 1977, dated 1979).

Data set [1] deals with mouse. The data set is described as follows: Analgesia, writhing test, mouse s.c. Format: in vivo. Conditions: for ED50: sc, mouse s.c. The source says:
(§1) The compounds of the present invention, that is, those embraced by formula I above and their non-toxic, pharmacologically acceptable acid addition salts, have useful pharmacodynamic properties. More particularly, they exert a therapeutically useful effect upon the central nervous system in warm-blooded animals, such as mice, especially analgesic and morphine-antagonistic activities, which were confirmed in the writhing test and the Haffner test. Pursuant to prevailing teachings, this agonistic/antagonistic activity spectrum points toward the absence of or a very low abuse potential.

The next data set in a line: Toxicity, mouse, s.c. It counts as in vivo. The settings on record: in vivo, sc; for LD50: mouse; for selectivity ratio: mouse s.c., LD50 / writhing ED50, read-out: Index LD50/ED50. A general note: Writhing tests count abdominal constrictions after an irritant is injected.
In data set [2] the test system is mouse. The data set is described as follows: Morphine-antagonism, mouse (Nalorphine = 1). Format: in vivo. The settings on record: for Morphine-antagonism (Nalorphine = 1): mouse, relative potency.
Description: as §1

The test system of data set [3] is mouse. The data set can be described thus: Toxicity, mouse, s.c. Format: in vivo.
In data set [4] the test system is withdrawn morphine dependent monkeys. The data set is described as follows: Suppression of abstinence symptoms in withdrawn morphine dependent monkeys. It counts as in vivo, monkey.
Data set [5] concerns withdrawn morphine dependent rats. The data set can be described thus: Suppression of abstinence symptoms in withdrawn morphine dependent rats. It counts as in vivo, rat.
Description: as §1

A word on the ED50: it is the dose at which the effect has come halfway, by size or by number of responders. Broadly, the LD50 is the dose at which mortality reaches 50%. A higher LD50 goes with a less toxic substance.

Molecule `C[C@H]1[C@H]2Cc3ccc(O)cc3[C@]1(C)CCN2Cc1ccco1` (relative stereo) [2-furfuryl-2'-hydroxy-5,9-α-dimethyl-6,7-benzomorphan] registered an ED50 in the data set with mouse [1] of 18 mg/kg. Moreover, in the data set “Toxicity, mouse, s.c.”, the LD50 was found to be 292 mg/kg and the selectivity ratio stood at 16. In addition, in the data set with mouse [2], the “Morphine-antagonism (Nalorphine = 1)” value was 1.

In turn, `Cc1ccoc1CN1CC[C@@]2(C)c3cc(O)ccc3C[C@@H]1[C@@H]2C` (relative stereo) [2-(3-methyl-furfuryl)-2'-hydroxy-5,9-α-dimethyl-6,7-benzomorphan] displayed an ED50 in the data set on mouse [1] of 0.6 mg/kg. In the data set “Toxicity, mouse, s.c.”, the LD50 came out at 305 mg/kg and the selectivity ratio was determined as 508. In the data set on mouse [2] (morphine antagonism, in words), the antagonistic component entry was “does not have the desired antagonistic component”. Moreover, the “Morphine-antagonism (Nalorphine = 1)” value with mouse [2] was “inactive”.

In turn, `CC(C)=CCN1CCC2(C)c3cc(O)ccc3CC1C2C` (stereo not shown) [Pentazocine] yielded an ED50 in the data set on mouse [1] of 1.4 mg/kg. Further, in the data set “Toxicity, mouse, s.c.”, the LD50 was determined as 220 mg/kg and the selectivity ratio worked out at 157. The “Morphine-antagonism (Nalorphine = 1)” value in the data set on mouse [2] stood at 0.025.

`C[C@H]1[C@H]2Cc3ccc(O)cc3[C@]1(C)CCN2Cc1ccno1` (relative stereo) [Example 1, 5,9-α-Dimethyl-2'-hydroxy-2-(5-isoxazolyl-methyl)-6,7-benzomorphan] yielded an ED50 with mouse [1] of 0.6 mg/kg. The “analgesic activity compared with 2-furfuryl-2'-hydroxy-5,9-α-dimethyl-6,7-benzomorphan” value in the data set with mouse [1] (vs. 2-furfuryl compound) is “significantly superior”. The molecule further yielded an LD50 in “Toxicity, mouse, s.c.” of 1080 mg/kg. In addition, the selectivity ratio in “Toxicity, mouse, s.c.” amounted to 1800. Further, in the data set on mouse [3] (vs. 2-furfuryl compound), the “therapeutic index compared with 2-furfuryl-2'-hydroxy-5,9-α-dimethyl-6,7-benzomorphan” value is “significantly superior”. Also, the “therapeutic index compared to pentazocine” value in the data set with mouse [3] (vs. pentazocine) is “far superior”. For the same molecule, the “suppression of abstinence symptoms” value in data set [4] and in data set [5] was “not capable of suppressing the abstinence symptoms” throughout. Also, in the data set on mouse [2], the “Morphine-antagonism (Nalorphine = 1)” value amounted to 0.1.
